Test system: polycystin-2L1
Assay type: cell-based
Settings: for Effect of extracellular reducing agents on polycystin-2L1 current: WT polycystin-2L1
Procedure: Electrophysiology. Ciliary ion currents were recorded using borosilicate glass electrodes polished to resistances of 14-22 MΩ using the cilium patch method previously described^32. Whole cell electrodes used to measure poly cystin-2L1 currents were fire polished to 1.5-4 MΩ resistances. Unless otherwise stated, whole cilia ionic currents were recorded in symmetrical [Na^+]. The pipette standard internal solution contained (in mM): 90 NaMES, 10 NaCl, 10 HEPES, 10 Na4-BAPTA (Glycine, N, N′-[1,2-ethanediylbis(oxy-2,1-phenylene)]bis[N-(carboxymethyl)]-,tetrasodium); pH was adjusted to 7.3 using NaOH. Standard bath solution contained 140 NaCl, 10 HEPES, 1.8 CaCl2); pH 7.4. All solutions were osmotically balanced to 295 (±6) mOsm with mannitol. Extracellular solutions containing TCEP and GSH were used within six hours of formulation. Data were collected using an Axopatch 200B patch clamp amplifier, Digidata 1440A, and pClamp 10 software. Whole-cilium and excised patch currents were digitized at 25 kHz and low-pass filtered at 10 kHz. In the whole cilium configuration, the holding potential was −60 mV and then depolarized using a 400 ms voltage ramp from −100 mV to 100 mV. The whole cell recordings of polycystin-2L1 currents were either activated by the same ramp protocol or by 100 ms depolarizations to 100 mV from a −100 mV holding potential. External conditions were controlled using a Warner Perfusion Fast-Step (SF-77B) system in which the patched cilia and electrode were held in the perfusate stream. Data were analyzed by Igor Pro 7.00 (Wavemetrics, Lake Oswego, Oreg.). The polycystin-2 open probability and the polycystin-2L1 tail current-voltage relationships were fit to a Boltzmann function, f(x)=1/(1+exp[V−V1/2]/k) to estimate voltage of half-maximal activation of current (V1/2).

In the case of `N[C@@H](CCC(=O)N[C@@H](CS)C(=O)NCC(=O)O)C(=O)O` [GSH, reduced glutathione], the “Effect of extracellular reducing agents on polycystin-2L1 current” value is reported as “near complete loss of current”.

With `O=C(O)CCP(CCC(=O)O)CCC(=O)O` [TCEP, tris-2-carboxyethyl phosphine] the “Effect of extracellular reducing agents on polycystin-2L1 current” value was “near complete loss of current”.

`[Gd]` [gadolinium] was tested, and the “Block of polycystin-2L1 currents by trivalent ions” value (10 μM, plasma membrane of HEK cells) was “blocked”.

From US20210369677A1, “SMALL MOLECULE ACTIVATORS OF POLYCYSTIN-2 (PKD2) AND USES THEREOF” (Northwestern University, priority 2020, published 2021)
